Experiments:
5′-nucleotidase = biological target: T1, 5′-nucleotidase (Mus musculus, UniProt Q61503); test: 5'-nucleotidase activity assay in intact primary hepatocytes (adenosine from AMP by HPLC); assay type: cell-based; details: 500 μM AOPCP, 100 μM AMP
T1 construct: endogenous in cells; host or cells: primary hepatocytes from C57BL/6J mice
T1 sequence (Q61503 29-551): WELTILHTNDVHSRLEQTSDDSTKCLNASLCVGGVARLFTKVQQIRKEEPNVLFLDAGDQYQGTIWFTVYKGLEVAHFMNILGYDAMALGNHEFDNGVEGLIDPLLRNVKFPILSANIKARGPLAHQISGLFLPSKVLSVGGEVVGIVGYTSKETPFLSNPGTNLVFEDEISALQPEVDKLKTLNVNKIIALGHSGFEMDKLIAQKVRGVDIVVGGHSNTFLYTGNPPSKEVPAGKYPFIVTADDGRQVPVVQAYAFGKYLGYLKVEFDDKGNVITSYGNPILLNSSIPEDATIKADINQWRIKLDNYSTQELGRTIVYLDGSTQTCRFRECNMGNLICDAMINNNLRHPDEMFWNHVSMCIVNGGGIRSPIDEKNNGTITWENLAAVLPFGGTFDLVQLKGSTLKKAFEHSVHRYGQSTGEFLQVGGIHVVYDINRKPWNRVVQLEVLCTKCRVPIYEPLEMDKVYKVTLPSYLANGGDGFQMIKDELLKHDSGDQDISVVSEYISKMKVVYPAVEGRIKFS
Experimental: The amounts of adenosine produced were determined by HPLC. […] Silencing efficiencies were evaluated by quantitative RT-PCR.
AOPCP inhibits 5′-nucleotidase activity by 97%.

[1] = test system: GLP-1 secretion from the ileum; test: GLP-1 secretion from ex vivo ileal explants (ELISA); assay type: cell-based, mouse; details: ileal explants of 24-month-old female B6 mice, 20 μM, 4 h, vs 0.2% DMSO
Experimental: GLP-1 measurement in plasma and in supernatants of ex vivo small intestine explant cultures. Blood was collected after 6 h refeeding (from 10 am to 4 pm) following 24 h fasting (from 9 am to 9 am) from tail veins of 2- or 24-month-old female Slc12a8 knockdown mice and their controls using EDTA-coated tubes. Blood was immediately chilled on ice, centrifuged at 5,000×g at 4° C., and plasma samples were stored at −80° C. Small intestines from gut-specific Slc12a8 knockdown female mice or 12-month-old Slc12a8KO female mice were cut into three segments of the duodenum, jejunum, and ileum with length ratios of 1:3:2 (Wang, H. H., et al., Hepatology, 2007, 45, 998-1006). […] GLP-1 levels in plasma and media were measured by GLP-1 Total ELISA Kit (EMD Millipore, MO) following the manufacturer's instruction. GLP-1 values were normalized by total protein content analyzed by Bradford assay.
The involvement of SIRT1 (Yoon, M. J., et al., Cell Metab., 2015 21, 706-717) and SIRT6 (Jiang, H. et al., Nature, 2013, 496, 110-113) in the observed increase in GLP-1 secretion was examined. […] GLP-1 levels were measured by ELISA in the supernatants from ex vivo ileal explants of 24-month-old female B6 mice cultured with 0.2% DMSO, 20 µM EX527 or 20 μM STK665401 for 4 h (n=3 mice, analyzed using ANOVA with Tukey's test).

Row | Structure (SMILES) | inhibition of 5′-nucleotidase activity (5′-nucleotidase) [%] | GLP-1 secretion [1]
1 | Nc1ncnc2c1ncn2[C@@H]1O[C@H](COP(=O)(O)CP(=O)(O)O)[C@@H](O)[C@H]1O [AOPCP, adenosine-5′-[α,β-methylene]diphosphate] | 97 | 
2 | Cn1c(=O)c2cc(S(=O)(=O)Nc3ccc(Cc4ccncc4)cc3)ccc2n(C)c1=O [STK665401] |  | not

— patent publication US12337010B2, “Compositions and methods of treatment using nicotinamide mononucleotide” (Washington University, priority 2017, dated 2025)
